These results are taken from PMC6017931, “A Novel Class of Schistosoma mansoni Histone Deacetylase 8 (HDAC8) Inhibitors Identified by Structure-Based Virtual Screening and In Vitro Testing” (Molecules : A Journal of Synthetic Chemistry and Natural …, 2018).

One assay addresses T1, hsHDAC6 (Homo sapiens, UniProt Q9UBN7).
T1 construct: purchased BPS Bioscience
T1 sequence (Q9UBN7 1-1215): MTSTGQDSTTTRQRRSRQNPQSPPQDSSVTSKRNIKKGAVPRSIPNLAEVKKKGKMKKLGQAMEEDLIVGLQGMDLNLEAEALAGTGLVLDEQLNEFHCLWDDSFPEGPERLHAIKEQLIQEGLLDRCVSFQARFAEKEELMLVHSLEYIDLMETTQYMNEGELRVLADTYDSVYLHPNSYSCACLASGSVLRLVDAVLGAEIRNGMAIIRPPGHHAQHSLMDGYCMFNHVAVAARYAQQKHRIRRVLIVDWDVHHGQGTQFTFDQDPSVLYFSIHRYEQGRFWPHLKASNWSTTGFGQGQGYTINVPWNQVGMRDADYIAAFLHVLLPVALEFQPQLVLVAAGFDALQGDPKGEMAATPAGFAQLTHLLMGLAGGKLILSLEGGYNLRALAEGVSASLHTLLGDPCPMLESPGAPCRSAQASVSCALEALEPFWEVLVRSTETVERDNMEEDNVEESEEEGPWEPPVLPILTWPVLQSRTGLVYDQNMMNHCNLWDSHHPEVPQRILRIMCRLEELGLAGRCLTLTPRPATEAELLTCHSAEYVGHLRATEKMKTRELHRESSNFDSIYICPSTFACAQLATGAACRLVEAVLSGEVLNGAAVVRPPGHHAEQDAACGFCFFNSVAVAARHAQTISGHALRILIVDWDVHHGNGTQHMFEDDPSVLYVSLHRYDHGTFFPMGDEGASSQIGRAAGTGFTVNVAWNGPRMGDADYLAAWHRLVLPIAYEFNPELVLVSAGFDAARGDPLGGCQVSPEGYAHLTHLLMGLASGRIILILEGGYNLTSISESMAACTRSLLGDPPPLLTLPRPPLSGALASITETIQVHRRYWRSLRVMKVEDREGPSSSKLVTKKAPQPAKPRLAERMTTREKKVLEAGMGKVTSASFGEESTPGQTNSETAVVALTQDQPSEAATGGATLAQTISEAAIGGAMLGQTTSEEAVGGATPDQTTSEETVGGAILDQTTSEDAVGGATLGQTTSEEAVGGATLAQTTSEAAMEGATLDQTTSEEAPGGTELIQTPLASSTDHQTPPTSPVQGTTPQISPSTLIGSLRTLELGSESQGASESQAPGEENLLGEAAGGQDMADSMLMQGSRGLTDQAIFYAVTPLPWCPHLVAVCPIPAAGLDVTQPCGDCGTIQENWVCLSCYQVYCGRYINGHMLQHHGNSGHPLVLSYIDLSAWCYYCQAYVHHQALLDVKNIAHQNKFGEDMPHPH
Kind of assay: hsHDAC6 in vitro inhibition assay. The format is biochemical. The note with it: for IC50: mean ± S.E., ZMAL 10.5 µM, 90 min at 37 °C. As for the experimental part: (§1) The biological assay was carried out using purified smHDAC8 protein and the small molecule substrate Z(Tfa)Lys-AMC (ZMTFAL) as previously reported. To assess the selectivity, the selected compounds were further tested against the human orthologue hsHDAC8 as well as the major human HDAC isoforms (HDAC1 and -6) using an established in vitro assay. […] Recombinant human HDAC1 and HDAC6 were purchased from BPS Bioscience. Recombinant human HDAC8 was expressed and purified as previously described. Recombinant smHDAC8 enzyme was produced in E. coli cells and purified by a method previously described by us. Inhibition assays of smHDAC8 and human HDACs were performed as already described in previous publications. Briefly, the commercial Fluor de Lys kit (BML-KI178) was used for testing inhibition of smHDAC8 and hsHDAC8. Test compounds, Fluor de Lys-HDAC8 substrate (50 µM) and enzyme were incubated for 90 min at 37 °C with subsequent addition of 50 μL Developer II (BML-KI176) and further incubation for 45 min at 30 °C. Fluorescence was measured in a plate reader (BMG Polarstar) with excitation at λ = 390 nm and emission at λ = 460 nm. Inhibition tests of human HDAC1 and 6 were conducted using ZMAL (Cbz-(Ac)Lys-AMC) as substrate and trypsin as a developer. […] Trichostatin A (2 µM) was used in both assays to stop the reaction. Fluorescence was measured similarly as mentioned above. IC50 values were determined with OriginPro (version 9.0.0, Northampton, MA, USA). IC50 Values in Table 1 are given as mean ± S.E.

The target of another assay is T2, hsHDAC1 (Homo sapiens, UniProt Q13547).
T2 construct: purchased BPS Bioscience
T2 sequence (Q13547 whole entry): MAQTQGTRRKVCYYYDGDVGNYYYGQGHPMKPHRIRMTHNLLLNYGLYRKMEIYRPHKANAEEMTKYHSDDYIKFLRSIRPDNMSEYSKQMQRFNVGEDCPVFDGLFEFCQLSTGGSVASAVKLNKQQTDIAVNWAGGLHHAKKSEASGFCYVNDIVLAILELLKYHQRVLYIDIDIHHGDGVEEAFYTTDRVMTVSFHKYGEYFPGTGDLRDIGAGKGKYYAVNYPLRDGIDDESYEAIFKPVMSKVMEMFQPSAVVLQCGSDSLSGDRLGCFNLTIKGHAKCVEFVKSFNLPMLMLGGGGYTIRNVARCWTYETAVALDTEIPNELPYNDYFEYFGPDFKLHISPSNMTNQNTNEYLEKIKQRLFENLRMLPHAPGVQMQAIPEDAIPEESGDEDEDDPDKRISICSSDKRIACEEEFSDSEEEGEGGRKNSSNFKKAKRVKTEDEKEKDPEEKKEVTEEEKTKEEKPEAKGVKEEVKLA
Kind of assay: hsHDAC1 in vitro inhibition assay. It is filed as biochemical. The note with it: mean ± S.E.; ZMAL 10.5 µM, 90 min at 37 °C. As for the experimental part:
as §1

For the next assay, the target named is T3, smHDAC8 (Schistosoma mansoni, UniProt A5H660).
T3 construct: made in house; host or cells: E. coli
T3 sequence (A5H660 1-440): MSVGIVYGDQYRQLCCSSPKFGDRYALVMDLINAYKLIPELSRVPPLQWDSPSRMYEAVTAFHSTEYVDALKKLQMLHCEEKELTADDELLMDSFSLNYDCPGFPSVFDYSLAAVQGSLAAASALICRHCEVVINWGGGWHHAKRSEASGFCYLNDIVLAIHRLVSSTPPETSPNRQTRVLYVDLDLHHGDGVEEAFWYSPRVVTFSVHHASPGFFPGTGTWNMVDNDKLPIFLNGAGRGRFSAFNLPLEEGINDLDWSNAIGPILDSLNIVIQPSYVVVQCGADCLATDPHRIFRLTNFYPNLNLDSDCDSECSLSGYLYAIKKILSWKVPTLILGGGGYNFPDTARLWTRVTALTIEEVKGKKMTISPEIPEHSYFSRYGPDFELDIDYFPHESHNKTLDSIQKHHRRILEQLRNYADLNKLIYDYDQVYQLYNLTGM
Kind of assay: smHDAC8 in vitro inhibition assay. The format is biochemical. The following applies: for IC50: mean ± S.E., Fluor de Lys-HDAC8 substrate 50 µM, 90 min at 37 °C. As to the method:
The biological assay was carried out using purified smHDAC8 protein and the small molecule substrate Z(Tfa)Lys-AMC (ZMTFAL) as previously reported. To assess the selectivity, the selected compounds were further tested against the human orthologue hsHDAC8 as well as the major human HDAC isoforms (HDAC1 and -6) using an established in vitro assay.
Recombinant human HDAC1 and HDAC6 were purchased from BPS Bioscience. Recombinant human HDAC8 was expressed and purified as previously described. Recombinant smHDAC8 enzyme was produced in E. coli cells and purified by a method previously described by us. Inhibition assays of smHDAC8 and human HDACs were performed as already described in previous publications. Briefly, the commercial Fluor de Lys kit (BML-KI178) was used for testing inhibition of smHDAC8 and hsHDAC8. Test compounds, Fluor de Lys-HDAC8 substrate (50 µM) and enzyme were incubated for 90 min at 37 °C with subsequent addition of 50 μL Developer II (BML-KI176) and further incubation for 45 min at 30 °C. Fluorescence was measured in a plate reader (BMG Polarstar) with excitation at λ = 390 nm and emission at λ = 460 nm. Inhibition tests of human HDAC1 and 6 were conducted using ZMAL (Cbz-(Ac)Lys-AMC) as substrate and trypsin as a developer. […] Trichostatin A (2 µM) was used in both assays to stop the reaction. Fluorescence was measured similarly as mentioned above. IC50 values were determined with OriginPro (version 9.0.0, Northampton, MA, USA). IC50 Values in Table 1 are given as mean ± S.E.

In another assay the target is T4, hsHDAC8 (Homo sapiens, UniProt Q9BY41).
T4 construct: made in house
T4 sequence (Q9BY41 1-377): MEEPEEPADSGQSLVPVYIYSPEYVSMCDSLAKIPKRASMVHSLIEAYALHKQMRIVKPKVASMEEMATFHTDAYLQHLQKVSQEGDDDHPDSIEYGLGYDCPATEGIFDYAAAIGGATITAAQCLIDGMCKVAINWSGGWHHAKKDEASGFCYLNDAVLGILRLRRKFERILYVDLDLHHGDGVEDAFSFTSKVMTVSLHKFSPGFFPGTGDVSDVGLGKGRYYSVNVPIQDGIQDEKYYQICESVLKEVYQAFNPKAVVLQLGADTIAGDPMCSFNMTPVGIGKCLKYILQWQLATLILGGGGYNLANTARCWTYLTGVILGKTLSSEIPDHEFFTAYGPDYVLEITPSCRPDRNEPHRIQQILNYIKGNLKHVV
Kind of assay: hsHDAC8 in vitro inhibition assay. The format is biochemical. The note with it: mean ± S.E.; Fluor de Lys-HDAC8 substrate 50 µM, 90 min at 37 °C. As for the experimental part: as §1

Assay [1] deals with S. mansoni schistosomula. Set-up: method as in PMID 24086136. The note with it: at 100 µM; cited from earlier work.
The subject of assay [2] is S. mansoni schistosomula. Kind of assay: Apoptosis induction in schistosomula (TUNEL). It is filed as cell-based, Schistosoma mansoni. The note with it: 100 µM, after 3 days. As to the method: The compound J1036 induced dose-dependent apoptosis in the infective larval stage (schistosomula) of S. mansoni, affecting 67% of the larvae after 3 days at a dose of 100 µM (Figure 4), whereas a polar hydroxamate derivative (J1038) identified by a previous virtual screening was ineffective in the same assay (data not shown here). […]. Although we cannot directly correlate the inhibitory activity on smHDAC8 with the lethal effect of J1036 on schistosomula, the high level of expression of this class I HDAC [21] in the parasite, and its validation as a stand-alone target by transcript knockdown, mean that its inhibition is sufficient to induce the effects observed.
Figure 4 J1036 induces apoptosis in S. mansoni schistosomula in vitro. (A) Dose-dependent induction of apoptosis determined by dUTP nick end labeling (TUNEL) shown as the percentage of parasites positively labeled; (B) TUNEL staining of schistosomula treated with 100 µM J1036 for 3 days. Parasites were counterstained using 4′,6-Diamidino-2-Phenylindole (DAPI).
The capacity of compounds J1036 and J1038 to induce apoptosis in S. mansoni schistosomula was measured using dUTP nick end labelling (TUNEL) and the In Situ Cell Death Detection Kit TMR (Roche Applied Science, Penzberg, Germany) exactly as previously described.

SMILES strings stand for the structures.

Take `CCCCCCC(=O)N(O)C1CC(=O)N(c2ccccc2)C1=O` (stereo not shown) [J1060]: the “inhibitory activity against HDAC6 (in words)” value (“inhibitory activity” for short) at hsHDAC6 is “submicromolar”. Besides, the IC50 at hsHDAC6 stood at 0.86 ± 0.12 µM; against hsHDAC1 it was 5 ± 0.42 µM; against smHDAC8, 11.5 ± 0.91 µM; at hsHDAC8, 1.8 ± 0.24 µM.
In the case of `CCCCCCC(=O)N(O)C1CC(=O)N(c2cccc(Cl)c2C)C1=O` (stereo not shown) [J1066], the inhibition at 25 µM on smHDAC8 (at 25 µM) was 13%.
With `O=C(NO)c1sc2ccccc2c1Cl` [J1075], the “apoptosis, percentage of larvae affected” value with S. mansoni schistosomula [1] is reported as 54%.
With `CCCCCCC(=O)N(O)C1CC(=O)N(c2ccc(Br)cc2)C1=O` (stereo not shown) [J1063], on hsHDAC6, the “inhibitory activity” value is “submicromolar”. For the same molecule, the IC50 was found to be 0.77 ± 0.09 µM against hsHDAC6, 1.42 ± 0.13 µM at hsHDAC1, 5.9 ± 1.6 µM on smHDAC8 and 7.72 ± 4.42 µM at hsHDAC8.
Turning to `CCCCCCC(=O)N(O)C1CC(=O)N(c2ccc(Cl)cc2)C1=O` (stereo not shown) [J1061], the IC50 against hsHDAC6 worked out at 2.65 ± 0.29 µM; at hsHDAC1 it was 3.98 ± 0.45 µM; on smHDAC8, 5.5 ± 0.7 µM; against hsHDAC8 it was 7.69 ± 3.3 µM.
Consider `CCCCCCC(=O)N(O)C1CC(=O)N(c2ccc(C)cc2)C1=O` (stereo not shown) [J1065], for which the IC50 was 1.57 ± 0.37 µM on hsHDAC6, 8.4 ± 0.28 µM against hsHDAC1, 20.2 ± 2.7 µM against smHDAC8 and 3.96 ± 0.6 µM at hsHDAC8.
With `O=C(CCCCCCC(=O)Nc1ccccc1)NO` [SAHA], the “apoptosis, percentage of larvae affected” value in the assay on S. mansoni schistosomula [1] is 43%.
For the molecule `CCCCCC(=O)N(O)C1CC(=O)N(c2ccc(Cl)cc2)C1=O` (stereo not shown) [J1036], the “apoptosis, percentage of larvae affected (TUNEL positive)” value with S. mansoni schistosomula [2] came to 67%. For the same molecule, the IC50 on hsHDAC6 was 5.02 ± 0.31 µM; at hsHDAC1, 6.76 ± 0.97 µM; at smHDAC8, 4.4 ± 0.17 µM; at hsHDAC8 it was 0.49 ± 0.18 µM.
For the molecule `COc1ccc(C(=O)NO)cc1NC(=O)c1ccc(-c2ccccc2)cc1` [TH65, reference compound], the IC50 against hsHDAC6 is 0.39 ± 0.002 µM; at hsHDAC1, 6.3 ± 2.1 µM; on smHDAC8, 0.075 ± 0.025 µM; against hsHDAC8, 0.026 ± 0.017 µM.
In the case of `CCCCCCC(=O)N(O)C1CC(=O)N(c2ccc(F)cc2)C1=O` (stereo not shown) [J1064], the “inhibitory activity” value against hsHDAC6 was “submicromolar”. The half-inhibitory concentration (IC50) on hsHDAC6 came to 0.6 ± 0.12 µM; against hsHDAC1 it was 4.3 ± 0.46 µM; on smHDAC8, 7.79 ± 0.28 µM; on hsHDAC8 it was 2.08 ± 0.34 µM.
With `CCCCCC(=O)N(O)C1CC(=O)N(c2ccccc2)C1=O` (stereo not shown) [J1058], the IC50 against hsHDAC6 turned out to be 6.2 ± 0.41 µM; against hsHDAC1, 26 ± 2.4 µM; on smHDAC8, 20.3 ± 2.78 µM; against hsHDAC8 it was 3.99 ± 0.74 µM.
The like results for `CCCCC(=O)N(O)C1CC(=O)N(c2ccccc2)C1=O` (stereo not shown) [J1057] were, in that order, 6.2 ± 0.34 µM, 42.1 ± 2.2 µM, 13.2 ± 1.85 µM and 2.62 ± 0.19 µM.
